Earlier results, collected in patent US8884000B2 (priority 2010, dated 2014).

Biological target: saporin-L1 (Saponaria officinalis, UniProt Q2QEH4)
Settings: pH 7.8

Sequence of saporin-L1 (Q2QEH4 22-280 limits assumed): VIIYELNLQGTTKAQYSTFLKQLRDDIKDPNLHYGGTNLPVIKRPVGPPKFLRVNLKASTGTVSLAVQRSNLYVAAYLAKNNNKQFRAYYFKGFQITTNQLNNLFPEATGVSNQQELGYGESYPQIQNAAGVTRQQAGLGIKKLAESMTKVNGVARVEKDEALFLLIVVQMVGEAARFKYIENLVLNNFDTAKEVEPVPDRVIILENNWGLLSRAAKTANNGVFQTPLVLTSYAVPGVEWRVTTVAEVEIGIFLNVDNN

poly(A)
Km: 639 ± 32 µM
kcat: 1.02 ± 0.017 s⁻¹
